# Test results taken from patent US7994168B2, “Hexahydro-pyrazino[1,2-A]pyrimidine-4,7-dione derivatives substituted with amino acids” (Sanofi-Aventis Deutschland GmbH, priority 2004, dated 2011).
# Tested on: female NMRI mice
# Experiment: Anorectic effect: cumulative condensed milk consumption of fasted mice
# Type: in vivo
# Conditions: oral dose 30 mg/kg by gavage after 24 hours food withdrawal, milk consumption determined for 7 hours, compared with vehicle-treated control animals
# Protocol: The anorectic effect was tested on female NMRI mice. After withdrawal of food for 24 hours, the test product was administered by gavage. The animals were housed singly with free access to drinking water and were offered condensed milk 30 minutes after administration of the product. The condensed milk consumption was determined every half hour for 7 hours, and the general wellbeing of the animals was observed. The measured milk consumption was compared with the vehicle-treated control animals.
row,SMILES,Reduction in the cumulative milk consumption as % of the control [%]
1,"CC(C)C(N)C(=O)N1CCCC1C(=O)NC1CN(S(=O)(=O)c2ccc(Cl)cc2Cl)C2CN(C(C)C)C(=O)C(Cc3ccc(Cl)cc3)N2C1=O (stereo not drawn) [Example 1, N-[6-(4-Chlorobenzyl)-1-(2,4-dichlorobenzenesulfonyl)-8-isopropyl-4,7-dioxooctahydropyrazino[1,2-a]pyrimidin-3-yl]-1-(2-amino-3-methylbutyryl)pyrrolidin-2-carboxamide]",8

# Target: T1, MC4 (Homo sapiens, UniProt P32245)
# T1 construct: expressed in transfected cells; host or cells: HEK293
# Experiment: In vitro functional assay with recombinant cells: agonist-induced changes in intracellular Ca2+ (FLIPR)
# Type: cell-based
# Conditions: recombinant HEK293 cells expressing MC4 and G-protein α-16; Fluo-4 Ca2+ FLIPR; 100% = 100 nM reference agonist MTII
# Protocol: In Vitro Functional Assays with Recombinant Cells
# Function-testing assays were carried out by determining the agonist-induced changes in the intracellular concentration of Ca^2+ in recombinant HEK293 cells which express both MC4 and G-protein α-16 by means of the FLIPR technique (“Fluorescence Imaging Plate Reader”, Molecular Devices Corp.).
# For the investigations, cells were seeded into 96-well microtiter plates (50 000 cells/well) and allowed to grow overnight. The medium was removed and the cells were incubated in buffer which contained the fluorescent dye Fluo-4. After this loading with dye, the cells were washed, test substance was added, and changes in the intracellular Ca^2+ concentration were measured in the FLIPR apparatus. Results have been shown as percentage change relative to the control (0%: no test substance added; 100%: 100 nM reference agonist MTII added), and used to calculate dose/activity plots, with subsequent determination of EC50 values.
# T1 sequence (P32245 whole entry): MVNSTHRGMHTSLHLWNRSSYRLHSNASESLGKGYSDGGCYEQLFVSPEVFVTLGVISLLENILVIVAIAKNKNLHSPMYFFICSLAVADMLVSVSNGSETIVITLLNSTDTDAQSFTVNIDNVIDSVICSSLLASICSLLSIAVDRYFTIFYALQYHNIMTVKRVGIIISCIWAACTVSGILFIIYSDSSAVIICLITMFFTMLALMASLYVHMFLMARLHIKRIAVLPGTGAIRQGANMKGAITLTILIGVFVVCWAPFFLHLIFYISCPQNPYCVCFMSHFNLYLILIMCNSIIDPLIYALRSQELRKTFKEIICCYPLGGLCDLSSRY
row,SMILES,EC50 [nM]
1,"CC(C)C(N)C(=O)N1CCCC1C(=O)NC1CN(S(=O)(=O)c2ccc(Cl)cc2Cl)C2CN(C(C)C)C(=O)C(Cc3ccc(Cl)cc3)N2C1=O (stereo not drawn) [Example 1, N-[6-(4-Chlorobenzyl)-1-(2,4-dichlorobenzenesulfonyl)-8-isopropyl-4,7-dioxooctahydropyrazino[1,2-a]pyrimidin-3-yl]-1-(2-amino-3-methylbutyryl)pyrrolidin-2-carboxamide]",0.4
2,"CC(C)N1CC2N(C(=O)C(NC(=O)C3CCCN3C(=O)CN)CN2S(=O)(=O)c2ccc(Cl)cc2Cl)C(Cc2ccc(Cl)cc2)C1=O (stereo not drawn) [Example 2, N-[6-(4-Chlorobenzyl)-1-(2,4-dichlorobenzenesulfonyl)-8-isopropyl-4,7-dioxooctahydropyrazino[1,2-a]pyrimidin-3-yl]-1-(2-aminoacetyl)pyrrolidine-2-carboxamide]",0.6
3,"CC(N)C(=O)N1CCCC1C(=O)NC1CN(S(=O)(=O)c2ccc(Cl)cc2Cl)C2CN(C(C)C)C(=O)C(Cc3ccc(Cl)cc3)N2C1=O (stereo not drawn) [Example 3, N-[6-(4-Chlorobenzyl)-1-(2,4-dichlorobenzenesulfonyl)-8-isopropyl-4,7-dioxooctahydropyrazino[1,2-a]pyrimidin-3-yl]-1-(2-aminopropionyl)pyrrolidine-2-carboxamide]",0.2
4,"CC(C)CC(N)C(=O)N1CCCC1C(=O)NC1CN(S(=O)(=O)c2ccc(Cl)cc2Cl)C2CN(C(C)C)C(=O)C(Cc3ccc(Cl)cc3)N2C1=O (stereo not drawn) [Example 4, N-[6-(4-Chlorobenzyl)-1-(2,4-dichlorobenzenesulfonyl)-8-isopropyl-4,7-dioxooctahydropyrazino[1,2-a]pyrimidin-3-yl]-1-(2-amino-4-methylpentanoyl)pyrrolidine-2-carboxamide]",0.4
5,"CC(C)C(C(=O)N1CCCC1C(=O)NC1CN(S(=O)(=O)c2ccc(Cl)cc2Cl)C2CN(C(C)C)C(=O)C(Cc3ccc(Cl)cc3)N2C1=O)N(C)C (stereo not drawn) [Example 5, N-[6-(4-Chlorobenzyl)-1-(2,4-dichlorobenzenesulfonyl)-8-isopropyl-4,7-dioxooctahydropyrazino[1,2-a]pyrimidin-3-yl]-1-(2-dimethylamino-3-methylbutyryl)pyrrolidine-2-carboxamide]",2
6,"CC(C)C(N)C(=O)N1CCCC1C(=O)NC1CN(S(=O)(=O)c2cc(F)ccc2Cl)C2CN(C(C)C)C(=O)C(Cc3ccc(Cl)cc3)N2C1=O (stereo not drawn) [Example 6, N-[6-(4-Chlorobenzyl)-1-(2-chloro-5-fluorobenzenesulfonyl)-8-isopropyl-4,7-dioxooctahydropyrazino[1,2-a]pyrimidin-3-yl]-1-(2-amino-3-methylbutyryl)pyrrolidine-2-carboxamide]",3.2
7,"CC(C)C(N)C(=O)N1CCCC1C(=O)NC1CN(S(=O)(=O)c2ccc(OC(F)(F)F)cc2Cl)C2CN(C(C)C)C(=O)C(Cc3ccc(Cl)cc3)N2C1=O (stereo not drawn) [Example 7, N-[6-(4-Chlorobenzyl)-1-(2-chloro-4-trifluoromethoxybenzene-sulfonyl)-8-isopropyl-4,7-dioxooctahydropyrazino[1,2-a]-pyrimidin-3-yl]-1-(2-amino-3-methylbutyryl)pyrrolidine-2-carboxamide]",2.6
8,"CC(C)C(N)C(=O)N1CCCC1C(=O)NC1CN(S(=O)(=O)c2ccc(Cl)cc2F)C2CN(C(C)C)C(=O)C(Cc3ccc(Cl)cc3)N2C1=O (stereo not drawn) [Example 8, N-[6-(4-Chlorobenzyl)-1-(4-chloro-2-fluorobenzenesulfonyl)-8-isopropyl-4,7-dioxooctahydropyrazino[1,2-a]pyrimidin-3-yl]-1-(2-amino-3-methylbutyryl)pyrrolidine-2-carboxamide]",2.4
9,"CC(C)C(N)C(=O)N1CCCC1C(=O)NC1CN(S(=O)(=O)c2ccc(Cl)cc2Cl)C2CN(C(C)C)C(=O)C(Cc3ccc(F)c(F)c3)N2C1=O (stereo not drawn) [Example 9, N-[1-(2,4-Dichlorobenzenesulfonyl)-6-(3,4-difluorobenzyl)-8-isopropyl-4,7-dioxooctahydropyrazino[1,2-a]pyrimidin-3-yl]-1-(2-amino-3-methylbutyryl)pyrrolidine-2-carboxamide]",1.5
10,"CC(C)C(N)C(=O)N1CCCC1C(=O)NC1CN(S(=O)(=O)c2ccc(Cl)cc2Cl)C2CN(C(C)C)C(=O)C(Cc3ccc(F)cc3F)N2C1=O (stereo not drawn) [Example 10, N-[1-(2,4-Dichlorobenzenesulfonyl)-6-(2,4-difluorobenzyl)-8-isopropyl-4,7-dioxooctahydropyrazino[1,2-a]pyrimidin-3-yl]-1-(2-amino-3-methylbutyryl)pyrrolidine-2-carboxamide]",5.7
11,"CC(C)C(N)C(=O)N1CCCC1C(=O)NC1CN(S(=O)(=O)c2ccc(Cl)cc2Cl)C2CN(CC(F)F)C(=O)C(Cc3ccc(Cl)cc3)N2C1=O (stereo not drawn) [Example 11, N-[6-(4-Chlorobenzyl)-1-(2,4-dichlorobenzenesulfonyl)-8-(2,2-difluoroethyl)-4,7-dioxooctahydropyrazino[1,2-a]pyrimidin-3-yl]-1-(2-amino-3-methylbutyryl)pyrrolidine-2-carboxamide]",0.6
12,"CCN1CC2N(C(=O)C(NC(=O)C3CCCN3C(=O)C(N)C(C)C)CN2S(=O)(=O)c2ccc(Cl)cc2Cl)C(Cc2ccc(Cl)cc2)C1=O (stereo not drawn) [Example 12, N-[6-(4-Chlorobenzyl)-1-(2,4-dichlorobenzenesulfonyl)-8-ethyl-4,7-dioxooctahydropyrazino[1,2-a]pyrimidin-3-yl]-1-(2-amino-3-methylbutyryl)pyrrolidine-2-carboxamide]",0.6
13,CC(C)C(N)C(=O)N1CCCC1C(=O)NC1CN(S(=O)(=O)c2ccc(Cl)cc2Cl)C2CN(C)C(=O)C(Cc3ccc(Cl)cc3)N2C1=O (stereo not drawn) [Example 13],4.7
14,"CCN1C[C@H]2N(C(=O)C(NC(=O)C3CCCN3C(=O)C(N)C(C)C)CN2S(=O)(=O)c2ccc(Cl)cc2Cl)[C@@H](Cc2ccc(F)c(F)c2)C1=O (stereo partly drawn) [Example 14, N-[1-(2,4-dichlorobenzenesulfonyl)-6-(3,4-difluorobenzyl)-8-ethyl-4,7-dioxooctahydropyrazino[1,2-a]pyrimidin-3-yl]-1-(2-amino-3-methylbutryl)pyrrolidine-2-carboxamide]",1.6
15,"CC(C)C(N)C(=O)N1CCCC1C(=O)NC1CN(S(=O)(=O)c2ccc(Cl)cc2Cl)C2CN(C)C(=O)C(Cc3ccc(F)c(F)c3)N2C1=O (stereo not drawn) [Example 15, N-[1-(2,4-Dichlorobenzenesulfonyl)-6-(3,4-difluorobenzyl)-8-methyl-4,7-dioxooctahydropyrazino[1,2-a]pyrimidin-3-yl]-1-(2-amino-3-methylbutyryl)pyrrolidine-2-carboxamide]",30.8
16,"CC(C)C(N)C(=O)N1CCCC1C(=O)NC1CN(S(=O)(=O)c2ccc(Cl)cc2Cl)C2CN(C(C)C)C(=O)C(Cc3cccnc3)N2C1=O (stereo not drawn) [Example 16, N-[1-(2,4-Dichlorobenzenesulfonyl)-8-isopropyl-4,7-dioxo-6-pyridin-3-ylmethyloctahydropyrazino[1,2-a]pyrimidin-3-yl]-1-(2-amino-3-methylbutyryl)pyrrolidine-2-carboxamide]",717
17,"CC(C)C(N)C(=O)N1CCCC1C(=O)NC1CN(S(=O)(=O)c2ccc(Cl)cc2Cl)C2CN(C3CC3)C(=O)C(Cc3cccnc3)N2C1=O (stereo not drawn) [Example 17, N-[8-Cyclopropyl-1-(2,4-dichlorobenzenesulfonyl)-4,7-dioxo-6-pyridin-3-ylmethyloctahydropyrazino[1,2-a]pyrimidin-3-yl]-1-(2-amino-3-methylbutyryl)pyrrolidine-2-carboxamide]",3490
